Source: patent US20070259897A1, “Fungicidal Mixtures” (BASF Aktiengesellschaft, priority 2004, published 2007)

Test system: Cochliobolus miyabeanus
Assay: Activity against brown spot of rice caused by Cochliobolus miyabeanus, protective application
Format: in vivo
Settings: individual active compound, evaluated after 6 days
Protocol: The active compounds, separately or jointly, were prepared as a stock solution comprising 0.25% by weight of active compound in acetone or DMSO. 1% by weight of the emulsifier Uniperol® EL (wetting agent having emulsifying and dispersing action based on ethoxylated alkylphenols) was added to this solution, and the mixture was appropriately diluted with water to the desired concentration.
Use example—Activity against brown spot of rice caused by Cochliobolus miyabeanus, protective application Leaves of rice seedlings of the cultivar “Tai-Nong 67” which had been grown in pots were sprayed to runoff point with an aqueous suspension having the concentration of active compound stated below. The next day, the plants were inoculated with an aqueous spore suspension of Cochliobolus miyabeanus. The test plants were then placed in climatized chambers at 22-24° C. and 95-99% relative atmospheric humidity for 6 days. The extent of the development of infection on the leaves was then determined visually.
The visually determined values for the percentage of infected leaf area were converted into efficacies as a % of the untreated control:
The efficacy (E) is calculated as follows using Abbot's formula: E=(1−α/β)·100 α corresponds to the fungal infection of the treated plants in % and β corresponds to the fungal infection of the untreated (control) plants in % An efficacy of 0 means that the infection level of the treated plants corresponds to that of the untreated control plants; an efficacy of 100 means that the treated plants are not infected.
The expected efficacies of the mixtures of active compounds were determined using Colby's formula [R. S. Colby, “Calculating synergistic and antagonistic responses of herbicide combinations”, Weeds, 15, 20-22 (1967)] and are compared with the observed efficacies.
Colby's formula: E=x+y−x·y/100
E expected efficacy, expressed in % of the untreated control, when using the mixture of the active compounds A and B at the concentrations a and b x efficacy, expressed in % of the untreated control, when using active compound A at the concentration a y efficacy, expressed in % of the untreated control, when using active compound B at the concentration b

| SMILES | Efficacy in % of the untreated control (6.25 ppm in the spray liquor) [%] | Efficacy in % of the untreated control (12.4 ppm in the spray liquor) [%] | Efficacy in % of the untreated control (3.1 ppm in the spray liquor) [%] |
| --- | --- | --- | --- |
| CC12CC1(C)C(=O)N(c1cc(Cl)cc(Cl)c1)C2=O (stereo not shown) [II (procymidone), 3-(3,5-dichlorophenyl)-1,5-dimethyl-3-aza-bicyclo[3.1.0]hexane-2,4-dione] | 22 | 44 |  |
| CC1CCN(c2c(-c3c(F)cc(F)cc3F)c(Cl)nc3ncnn23)CC1 [I, 5-chloro-7-(4-methylpiperidin-1-yl)-6-(2,4,6-trifluorophenyl)[1,2,4]tri-azolo[1,5-a]pyrimidine] | 56 |  | 22 |
